The values that follow come from patent US4770998A, “Biochemical assay of aldehydes” (Mobil Oil Corporation, priority 1985, dated 1988).

The test system of data set [1] is Mouse lymphoma L5178Y cells (clone 3.7.2C). The data set is described as follows: Mouse lymphoma mutagenicity assay (TK locus) with total growth, nonactivated (without S-9), with and without FDH plus NAD. In kind it is cell-based. The protocol:
All tests preferably are performed in duplicate.
In this example the dose-dependent mutagenic effect of formaldehyde on lymphoma cultures, both with and without FDH plus NAD, was investigated in the absence of S-9 activation.

The conditions of data set [2]: known stoichiometric release; cited from earlier work.
Data set [3] relates to Mouse lymphoma L5178Y cells (clone 3.7.2C). The data set can be described thus: Mouse lymphoma mutagenicity assay (TK locus) with total growth, with S-9 activation, with FDH plus NAD. Conditions: 2.5 and 5.0 ug/ml.
Procedure: Mouse lymphoma L5178Y cells (clone 3.7.2C) ATCC CRL 9518 are preferred since these indicator cells are useful for mutagenicity as well as for toxicity assay.
The L5178Y mouse lymphoma indicator cells (clone 3.7.2C) are stored in liquid nitrogen. Cultures are thawed and are maintained in logarithmic growth by serial subculturing for up to six weeks. Cultures are grown at 37° C. in either a shaker incubator or a roller-harvester incubator. […] Cultures are cleansed on a weekly basis, as described by Clive et al. (1979), to reduce the frequency of spontaneous TK-/- mutants and thus maintain minimum mutant frequencies in the negative controls.
The medium for suspension culture of the cells is Fischer's medium (for leukemic mice) supplemented with heat-inactivated horse serum (10%, v/v), sodium pyruvate (1 mM) and Pluronic (0.1%, w/v). […]
Logarithmically growing cultures of recently cleansed lymphoma cells are counted and adjusted to 1×10^6 cells/ml for use in the assays. […]
An expression period of 2 days is used to allow recovery, growth and expression of the TK-/- phenotype. Cell population densities will be determined on Day 1 (approximately 24 hours after treatment) and is adjusted to 3×10^5 cells/ml to maintain optimal growth rates. Cell population densities are then determined on Day 2 (approximately 44 hours after treatment), and appropriated cultures selected for mutant analysis. […]

Regarding `O=[N+]([O-])C(CO)(CO)CO` [TNM, Tris-(hydroxymethyl) nitromethane], in data set [1], the “total growth / toxicity” value is “Dose dependent increases in toxicity and mutagenicity”; the “toxicity with FDH and NAD” value is “absent”. The “mutagenicity with FDH and NAD” value in data set [1] (supplemented with FDH and NAD, without S-9) is “absent”. In addition, the “mutant frequency / mutagenicity” value in data set [1] (without FDH/NAD, without S-9) is “Dose dependent increases in toxicity and mutagenicity”. Moreover, in data set [2], the formaldehyde released was 3 mols of formaldehyde per mol of TNM.

Take `CCOS(C)(=O)=O` [EMS, ethylmethane sulfonate]: in data set [1] (0.5 and 1.0 ul/ml, without S-9), the “reduction of mutagenicity with addition of FDH plus NAD” value is given as “No reduction of toxicity or mutagenicity” and the “reduction of toxicity with addition of FDH plus NAD” value is “No reduction of toxicity or mutagenicity”.

With `Cc1c2ccccc2c(C)c2c1ccc1ccccc12` [DMBA, 7,12-dimethylbenz[a]anthracene], in data set [3], the “reduction of mutagenicity with addition of FDH plus NAD” value is listed as “No reduction of toxicity or mutagencity” and the “reduction of toxicity with addition of FDH plus NAD” value was “No reduction of toxicity or mutagencity”.
